The test has as its system M. tuberculosis H37Rv growth inhibition, 7H9 media. The test can be described thus: M. tuberculosis growth inhibition, HTS (AID 449762).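 As to all read-outs here: bacterial growth assessed after seven days of incubation.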 Particulars: for IC90: measured here: IC90 growth inhibition.

Results filed as inconclusive are left out.

With `O=C(C1CC1)N1CCCC(c2ccc(Cl)cc2)=N1`, the IC50 was 33.1 µM and the IC90 is 50.2 µM.
For `CCNCC(=O)N1c2ccccc2CCc2ccc(NC(=O)OC(C)C)cc21`, in that order: 55.9 µM and 71.3 µM.
For `CCn1c(=O)c(CCC(=O)N2CCN(c3ccccn3)CC2)c(C)c2c(C)nn(-c3cccc(C)c3)c21`, in that order: 19.5 µM and 27.5 µM.
For `Cc1ccc(S(=O)(=O)NNC(=O)c2cc([N+](=O)[O-])c(C)c([N+](=O)[O-])c2)cc1`, in that order: 7.57 µM and 12.5 µM.
For the molecule `CC(C)CCNC(=O)C(c1ccc(O)cc1)N(C(=O)C1COc2ccccc2O1)c1cccc(O)c1` (centres undefined), the IC50 was 71 µM and the IC90 is greater than 100 µM.
For `O=C(CSc1ncnc2nc[nH]c12)c1ccc(Cl)cc1`, in that order: 12.1 µM and 13.9 µM.
For `COc1nn(-c2ccccc2)c(=O)c(Cl)c1Cl`, in that order: 5.52 µM and 9.06 µM.
For `FC(F)(F)c1cc(CO[C@@H]2CCCN[C@@H]2c2ccccc2)cc(C(F)(F)F)c1`, in that order: 24.5 µM and 28.8 µM.
Regarding `Cc1ccc(NC(=O)Cc2ccc(-c3ccccc3)cc2)nc1`, the IC50 was 25 µM and the IC90 came to 61.3 µM.
Regarding `Cc1cc(N/N=C2/CCCc3ccccc32)nc2ccccc12`, the IC50 is 31.7 µM and the IC90 was found to be 37.9 µM.
With `CC1CCN(C(=O)c2ccc(-c3ccccc3Cl)o2)CC1`, the IC50 is 17.9 µM and the IC90 stood at 65.8 µM.
For `Nc1nc(CN2CCN(c3ccccc3F)CC2)nc(N2CCCc3ccccc32)n1`, in that order: 4.99 µM and 14 µM.
`N#Cc1c(-c2ccccc2)c(-c2ccccc2)nn(CC(=O)NNC(=O)Nc2ccc(Cl)c(Cl)c2)c1=O`: the IC50 is 49.2 µM and the IC90 came out at 55.5 µM.
For `CCc1ccc2[nH]c(=O)c(CN(CCCN3CCOCC3)C(=O)Nc3cccc(Cl)c3)cc2c1`, in that order: 24.1 µM and 30.4 µM.
Consider `CC1(c2ccc(OC(F)F)cc2)NC(=O)N(CC(=O)c2ccc3c(c2)OCO3)C1=O` (centres undefined), for which the IC50 was 23.6 µM and the IC90 was found to be 32.2 µM.
Turning to `O=c1oc2ccccc2c(Nc2ccccc2O)c1[N+](=O)[O-]`, the IC50 is 7.1 µM and the IC90 was determined as 14 µM.
For `Oc1ccccc1/C=N/Nc1ccnc(SCc2ccccc2)n1`, the IC50 was 1.43 µM and the IC90 was 1.55 µM.
For `CCCCNC(=S)N/N=C/c1cccc(OCC)c1O`, in that order: 6.01 µM and 6.79 µM.
With `CCCCOC(=O)c1c(C)oc2ccc(NS(=O)(=O)c3ccc4c5c(cccc35)C(=O)N4)cc12`, the IC50 is 78.7 µM and the IC90 was greater than 100 µM.
For `Cc1[nH]n(-c2ccccc2)c(=O)c1C(C[N+](=O)[O-])c1ccccc1Cl` (centres undefined), in that order: 6.99 µM and 14.3 µM.
For `Cc1ccc(-c2nc3c(c(=O)c4ccccc4n3C)c(=O)n2Cc2ccco2)cc1`, in that order: 11.4 µM and 36.3 µM.
For `CCOC(=O)c1c(NC(=O)CSc2nc3ccc(OC)cc3[nH]2)sc2c1CC(C)(C)NC2(C)C`, in that order: 21.1 µM and 26.2 µM.
On to `C=C1C(=O)[C@@]23[C@H](O)C[C@@H]4C(C)(C)CC[C@H](O)[C@@]4(C)[C@@H]2CC[C@@H]1[C@H]3O`, for which the half-inhibitory concentration (IC50) is 3.04 µM and the IC90 came out at 4.05 µM.
`CC(=NCc1ccc2c(c1)OCO2)C1=C(O)c2ccccc2C1=O`: the IC50 is 1.09 µM and the IC90 was greater than 100 µM.
For `CC1=C(C)C(=O)C(CCCCC#CCCCC#CCO)=C(C)C1=O`, in that order: 10.9 µM and 18.7 µM.
For `CCOC(=O)C1CCN(c2cc3c(cc2NC(=O)c2ccccc2Cl)n(C)c(=O)n3C)CC1`, the IC50 was 46.6 µM and the IC90 worked out at 53.9 µM.
For `Cc1cc(N/N=C/c2ccccc2[N+](=O)[O-])nc(-n2nc(C)cc2C)n1`, in that order: 0.92 µM and 4.72 µM.
For `CSCCCNC(=S)N1CCN(c2ccc(C(C)=O)cc2)CC1`, in that order: 24.8 µM and 44.1 µM.
For the molecule `CCN(CC)C(=O)[C@H]1CC(CC(=O)NCC23CC4CC(CC(C4)C2)C3)C(=O)N2CCc3c([nH]c4ccccc34)[C@]12C` (some centres undefined), the IC50 is 18.3 µM and the IC90 worked out at 24.8 µM.
Take `O=C(Nc1nc2ccc(SC(F)F)cc2s1)c1ccc(NS(=O)(=O)c2ccc(F)c(F)c2)cc1`: the IC50 is 16.5 µM and the IC90 was determined as 24.7 µM.
For `Cc1ccc(C(=O)N/C(=C/c2ccco2)C(=O)OCN2C(=O)c3ccccc3C2=O)cc1`, the IC50 is 6.83 µM and the IC90 stood at 49.9 µM.
For `O=C(/C=C/c1ccc(O)c([N+](=O)[O-])c1)c1ccc2ccccc2c1`, in that order: 9.26 µM and 25.6 µM.
Turning to `CCC[C@@H]1C[C@@H](C(=O)NC(C(C)Cl)[C@H]2O[C@H](SC)[C@H](O)[C@@H](O)[C@H]2O)N(C)C1` (some centres undefined), the IC50 was 1.53 µM and the IC90 turned out to be 5.1 µM.
For `COc1ccccc1N1CCN(/N=C/C(Cl)=C/c2ccccc2)CC1`, in that order: 52.7 µM and greater than 100 µM.
Take `CC(C)(C)CC(C)(C)c1ccc(OCCOCC[N+](C)(C)Cc2ccccc2)cc1`: the IC50 is 26.2 µM and the IC90 was found to be 30 µM.
For `CCC1C(c2ccccc2)N(C)C(c2ccccc2)CC1(O)c1ccccc1` (centres undefined), in that order: 23.2 µM and 25.5 µM.
With `Cn1c(-c2c(N)n(CCc3ccccc3)c3nc4ccccc4nc23)nc2ccccc21`, the IC50 is 7.64 µM and the IC90 is greater than 100 µM.
For `O=[N+]([O-])c1cc([N+](=O)[O-])c2c(=Nc3ccccc3)n(-c3ccccc3)n(O)c2c1`, in that order: 6.35 µM and 9.25 µM.
For `CC1Cc2cc(-c3csc(NC(=O)Cc4cccs4)n3)ccc2N1S(C)(=O)=O` (centres undefined), in that order: 10.6 µM and 38 µM.
For `CCCSc1nn2c(=O)c3ccccc3nc2s1`, in that order: 8.34 µM and 25.2 µM.
Turning to `C#C[C@]1(O)CC[C@H]2[C@@H]3CCc4cc(OC5CCCC5)ccc4[C@H]3CC[C@@]21C`, the IC50 was 35.5 µM and the 90% effect concentration (IC90) worked out at 48 µM.
For `O=c1cc(CCl)nc(Cc2c(Cl)cccc2Cl)[nH]1`, in that order: 0.51 µM and 68.7 µM.
Take `c1ccc(Cn2c3ccccc3c3nnc(SCCN4CCCCC4)nc32)cc1`: the IC50 was 21.3 µM and the IC90 was 34.5 µM.
For `CCc1nnc(N/N=C/c2cc(C)c(C)cc2C)n1N`, in that order: 7.24 µM and 16 µM.
With `CCOc1ccc(OCCSc2ccc(S(=O)(=O)N3CCN(C)CC3)cn2)cc1`, the 50% inhibitory concentration (IC50) was 22.1 µM and the IC90 is 28.6 µM.
On to `O=C(CSc1nnnn1-c1ccc2c(c1)OCCO2)OC1CCCCC1`, for which the IC50 is 11.9 µM and the IC90 is 21.7 µM.
For `C=CCOc1ccc(/C=C/C(=O)OCC(=O)NCC2CCCO2)cc1` (centres undefined), in that order: 98.7 µM and greater than 100 µM.
For `O=C(OCC(=O)N1CCN(c2ccccc2)CC1)c1cnc(Cl)c(Cl)c1`, in that order: 20 µM and 41.7 µM.
For `O=C(NCCCN1CCOCC1)c1cc2c([nH]c3ccccc32)c(-c2cccc(Br)c2)n1`, in that order: 10.4 µM and 13.4 µM.
Regarding `Cc1ccccc1N/N=C/c1c(C)nc2ccccn12`, the IC50 was 47.1 µM and the IC90 was determined as 53.7 µM.
For `CNc1ccccc1C(=O)OC(C)C(=O)Nc1ccc(Cl)cn1` (centres undefined), in that order: 28.2 µM and 51.3 µM.
Consider `Cc1cccc(C)c1OCCCCc1c(C)n[nH]c1C`, for which the IC50 was 10.9 µM and the IC90 amounted to 26.4 µM.
On to `CCc1cc(OCCCCNCc2ccccc2)ccc1Cl`, for which the IC50 is 26.3 µM and the IC90 came out at 30.4 µM.
For `Cc1ccc2nc(N/N=C/c3ccccc3C#N)nc(-c3ccccc3)c2c1`, in that order: 81.1 µM and greater than 100 µM.
Turning to `O=C(Nc1nc2ccccc2[nH]1)C12CC3CC(CC(C3)C1)C2`, the IC50 is 10.3 µM and the IC90 was determined as 34.5 µM.
`CCCCCCCC(=O)N/N=C(/C)c1c(O)cc(C)oc1=O` returned a 90% effect concentration (IC90) greater than 100 µM.
Turning to `Cc1c(Cl)ccc2c1NC(=O)[C@]21N[C@@H](Cc2ccccc2)[C@H]2C(=O)N(c3ccc(F)cc3)C(=O)[C@H]21`, the IC50 is 23 µM and the IC90 worked out at 26.1 µM.
For `NNC(=S)NCc1ccc2c(c1)OCO2`, in that order: 23.8 µM and 26.8 µM.
For `O=C(O)C1CC=CCC1C(=O)N1CCN(c2nc(-c3ccccc3Cl)c3cc(Br)ccc3n2)CC1` (centres undefined), in that order: 46.4 µM and 78.5 µM.
For `CC1(c2cc([N+](=O)[O-])cc([N+](=O)[O-])c2)CC(C)(C)N(C(=O)c2ccccc2)c2ccccc21` (centres undefined), in that order: 12.1 µM and 19.4 µM.
As for `C=CCNCC(=O)N1N=C(c2ccc3ccccc3c2)CC1c1ccc(OC)cc1` (centres undefined), the IC50 is 21.8 µM and the IC90 is 24.3 µM.
For `COc1ccc(CNC(=O)c2c(N)n(CCCN3CCOCC3)c3nc4ccccc4nc23)cc1`, in that order: 94 µM and greater than 100 µM.
For `O=C(CCl)N1CCN2C(=O)c3ccccc3C12c1ccc(Cl)cc1` (centres undefined), in that order: 5.42 µM and 7.84 µM.
Turning to `COc1ccc(-c2c(C#Cc3ccsc3)c3ccccc3n2C)cc1`, the IC50 was 25.5 µM and the IC90 was determined as 37.8 µM.
As for `CCCCOC(=O)CSc1nnc(-c2ccc(Cl)cc2Cl)o1`, the half-inhibitory concentration (IC50) was less than 0.2 µM and the IC90 is 1.85 µM.
For `Cc1cccc(C(=O)OCC(=O)N2CCc3ccccc3C2)c1O`, in that order: 46.3 µM and greater than 100 µM.
For `CC1(C)C2CCC1(C)C(OCC[N+](C)(C)CC(=O)OC1CCCCC1)C2` (centres undefined), in that order: 10.9 µM and 12.2 µM.
In the case of `Cc1ccc2c(c1)c(C1=c3ccccc3=NC1=O)c(O)n2C`, the IC50 was 1.17 µM and the IC90 was determined as 3.07 µM.
For `COc1ccc2c3n(nc2c1)CCN=C3c1cc(Cl)c(N)c(Cl)c1`, in that order: 12.8 µM and 31.9 µM.
With `COc1ccc(-c2ccc(-c3noc(C(C)C)n3)c(OC)n2)cc1`, the IC50 was 10.7 µM and the IC90 is 26.7 µM.

For the origin of these results see PubChem BioAssay AID449762 (Southern Research Specialized Biocontainment Screening …, 2010).
